The record followed here is US10130611B2, “Use of benzo-heterocycle derivatives for preventing and treating cancer or for inhibiting cancer metastasis” (MEDICINAL BIOCONVERGENCE RESEARCH CENTER, priority 2009, dated 2018).

The target of assay [1] is T1, interaction between KRS and laminin receptor (67LR) (Homo sapiens, UniProt Q15046).
T1 construct: expressed in transfected cells; host or cells: yeast EGY/SH cells
The assay can be described thus: Yeast two hybrid growth assay, LexA-KRS/B42-LR pair. The settings on record: growth inhibition of yeast EGY/SH cells with LexA-KRS/B42-LR vs control, 1 μl of 10 mg/ml compound per well, 6 days, absorbance 540 nm; for inhibition at 10000 µg/mL (stock): read-out: Inhibition rate(%). The class given is cell-based. The procedure:
On the compound of the present invention obtained by screening a library of compounds, the extent of inhibition on the interaction between KRS and laminin receptor (67LR) was determined by a yeast two hybrid assay, as described below. KRS, LR, AIMP2, AIMP3 and MRS were cloned at LexA vector (clontech) and B42 vector (clontech) each so as to produce required vectors. From among the vectors, LexA-KRS vector and B42-LR vector were co-transformed into yeast EGY/SH cells, and then the yeast cells were diluted to an absorbance (540 nm wavelength) of 0.2 in galactose medium not containing uracil (Ura), histidine (His), tryptophane (Trp) and leucine (Leu), and placed in an amount of 200 u in a 96 well plate. 1 μl of each compound at a concentration of 10 mg/ml was placed in each well, incubated for 6 days, and the absorbance was measured at 540 nm. […] The inhibitory specificity of the selected compound was tested by using two different interaction pairs such as LexA-KRS/B42-AIMP2 and LexA-MRS/B42-AIMP3.
In order to determine if the compound of the present invention controls the interaction between KRS and laminin receptor, the present inventors determined the interaction between KRS and 67LR through treatment of the compound of the present invention.

Assay [2] relates to A549 cells. The assay is described as follows: Laminin-dependent membrane translocation of KRS and 67LR with kinase inhibitors. The class given is cell-based, human. The settings on record: inhibitor 3 hours then laminin 1 hour. Here is the method:
(§1) In FIG. 7, A549 cells were treated with laminin (10 μg/ml), and the levels of 67LR, 37LRP and KRS were determined by western blotting at the indicated times. Hsp90 and cadherin (Cad) were used as markers for cytoplasm and membrane, respectively. In FIG. 8, A549 cells untreated or treated with laminin for 1 hour were subjected to immunofluorescence staining with anti-67LR (MLuC5, Santacruz, sc-59732) (red) and KRS antibodies (green). In FIG. 9, A549 cells were treated with U73122 (U), staurosporin (ST) and LY294002 (LY) that inhibit PLC-gamma, PKC and PI3K, respectively, for 3 hours, and then treated with laminin for 1 hour. Then, it was determined how these kinase inhibitors would affect the cytoplasm and membrane of 67LR and KRS. In FIG. 10, A549 cells were transfected with Myc-KRS, and incubated for 24 hours. Then, the cells were treated with the indicated drugs and then with laminin as above. Myc-KRS was immunoprecipitated, and immunoblotted with anti-p-Thr, -Ser, and -Tyr antibodies. In FIG. 11, A549 cells were transfected with Myc-KRS, and cultured for 24 hours. […] Myc-KRS was immunoprecipitated, and co-precipitation of 67LR was determined by western blotting. […] EPRS (glutamyl-prolyl-tRNA synthetase) was immunoprecipitated with its specific antibody (AbCam), and co-precipitation of KRS was determined by western blotting (upper). […]

In assay [3] the test system is KRS. The assay can be described thus: Laminin-induced phosphorylation of KRS (immunoblot p-Thr, -Ser, -Tyr). The class given is cell-based, human. The settings on record: A549 cells transfected with Myc-KRS, inhibitor then laminin. The procedure: as §1

T1 sequence (Q15046 whole entry): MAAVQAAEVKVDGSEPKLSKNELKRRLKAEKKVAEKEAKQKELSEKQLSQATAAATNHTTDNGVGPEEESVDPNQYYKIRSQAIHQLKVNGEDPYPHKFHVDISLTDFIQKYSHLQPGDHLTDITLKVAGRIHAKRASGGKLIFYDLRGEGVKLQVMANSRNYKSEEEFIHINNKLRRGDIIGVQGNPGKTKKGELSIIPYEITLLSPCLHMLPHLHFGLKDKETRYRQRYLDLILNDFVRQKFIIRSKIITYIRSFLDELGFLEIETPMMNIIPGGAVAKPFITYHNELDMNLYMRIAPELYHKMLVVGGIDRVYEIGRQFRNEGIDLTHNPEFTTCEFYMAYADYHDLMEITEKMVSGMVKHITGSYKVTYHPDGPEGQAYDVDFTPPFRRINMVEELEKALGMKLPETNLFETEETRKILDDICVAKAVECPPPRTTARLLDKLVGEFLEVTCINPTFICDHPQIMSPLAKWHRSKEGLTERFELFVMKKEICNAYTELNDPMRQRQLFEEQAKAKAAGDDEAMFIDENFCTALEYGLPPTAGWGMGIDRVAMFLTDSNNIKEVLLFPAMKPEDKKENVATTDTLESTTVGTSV

Consider `COc1ccc2nc(NC(=O)c3ccccc3)oc2c1` [Compound of formula 2, N-(6-Methoxy-benzooxazol-2-yl)-benzamide], for which the inhibition (usually the relative decrease from the control value, in per cent) at 10000 µg/mL (stock) in assay [1] is 54.2%.
For the compound `COc1ccc2oc(NC(=O)c3ccccc3)nc2c1` [Compound of formula 3, N-(5-Methoxy-benzooxazol-2-yl)-benzamide], the “Inhibition rate(%)” value in assay [1] came out at 59.98%.
As to `Clc1ccc2oc(Nc3ccccc3)nc2c1` [Compound of formula 4, (5-Chloro-benzooxazol-2-yl)-phenyl-amine], in assay [1], the inhibition at 10000 µg/mL (stock) came out at 51.8%.
As for `CCc1ccc(Nc2nc3cc(Cl)ccc3o2)cc1` [Compound of formula 5, (5-Chloro-benzooxazol-2-yl)-(4-ethyl-phenyl)-amine], in assay [1], the inhibition at 10000 µg/mL (stock) was 47.5%.
`Clc1ccc2oc(Nc3ccc(Cl)c(Cl)c3)nc2c1` [Compound of formula 6, (5-Chloro-benzooxazol-2-yl)-(3,4-dichloro-phenyl)-amine]: the inhibition at 10000 µg/mL (stock) in assay [1] came to 52.8%.
Same read-out and setting: next, `O=[N+]([O-])c1ccc2oc(Nc3ccc(/N=N/c4ccccc4)cc3)nc2c1` [Compound of formula 7, (5-Nitro-benzooxazol-2-yl)-(4-phenylazo-phenyl)-amine]: 47.6%.
Take `O=C(Nc1nc2ccccc2o1)c1ccccc1` [Compound of formula 8, N-Benzooxazol-2-yl-benzamide]: in assay [1], the inhibition at 10000 µg/mL (stock) was found to be 47.3%.
Take `O=C(Nc1nc2cc([N+](=O)[O-])ccc2o1)c1ccccc1` [Compound of formula 9, N-(5-Nitro-benzooxazol-2-yl)-benzamide]: in assay [1], the inhibition at 10000 µg/mL (stock) stood at 36.9%.
Still for that read-out and setting: the value for `COc1ccc2oc(NC(=O)c3ccccc3)nc2c1` [Compound of formula 10, N-(5-Methoxy-benzooxazol-2-yl)-benzamide] was 60%; that for `Cc1ccc2oc(NC(=O)c3ccccc3)nc2c1` [Compound of formula 11, N-(5-Methyl-benzooxazol-2-yl)-benzamide] was 49.1%; that for `O=C(Nc1nc2ccc([N+](=O)[O-])cc2s1)c1ccc(C(F)(F)F)cc1` [Compound of formula 12, N-(6-Nitro-benzothiazol-2-yl)-4-trifluoromethyl-benzamide] was 52.5%.
Regarding `Cc1ccc2oc(-c3ccccc3OCC(=O)O)nc2c1` [Compound of formula 13, [2-(5-Methyl-benzooxazol-2-yl)-phenoxy]-acetic acid], the inhibition at 10000 µg/mL (stock) in assay [1] was 55.2%.
The same measure, in the same setting: the value for `Cc1cc(C)c(-c2nc3cc(N)ccc3o2)c(C)c1` [Compound of formula 14, 2-(2,4,6-Trimethyl-phenyl)-benzooxazol-5-ylamine] was 49.3%.
Still for that read-out and setting: the value for `COc1cccc(OC)c1-c1nc2ccccc2s1` [Compound of formula 16, 2-(2,6-Dimethoxy-phenyl)-benzothiazole] was 47.6%.
On the same count and under the same terms, the value for `Fc1ccc(CNCc2c[nH]c3ccc(F)cc23)c(Cl)c1` [Compound of formula 17, (2-Chloro-4-fluoro-benzyl)-(5-fluoro-1H-indol-3-ylmethyl)-amine] was 36.5%.
On to `COc1ccc2c(c1)CC[C@@H]1[C@@H]2CC[C@]2(C)[C@@H](NCCCCCCN3C(=O)C=CC3=O)CC[C@@H]12` [U73122], for which, in assay [2], the “Laminin-dependent increase of KRS and 67LR in the membrane fraction” value is listed as “larger laminin-dependent increase of 67LR than those in the control group”.
For the compound `CN[C@@H]1C[C@H]2O[C@@](C)([C@@H]1OC)n1c3ccccc3c3c4c(c5c6ccccc6n2c5c31)C(=O)NC4` [staurosporin], in assay [2], the “Laminin-dependent increase of KRS and 67LR in the membrane fraction” value is recorded as “larger laminin-dependent increase of 67LR than those in the control group”. The “laminin-induced phosphorylated KRS at threonine and serine” value in assay [3] is reported as “did not have any effect”.
